Assay [1] addresses T1, Membrane-bound ghrelin O-acyltransferase MBOAT4 (Mus musculus) (UniProt P0C7A3).
T1 sequence (whole entry): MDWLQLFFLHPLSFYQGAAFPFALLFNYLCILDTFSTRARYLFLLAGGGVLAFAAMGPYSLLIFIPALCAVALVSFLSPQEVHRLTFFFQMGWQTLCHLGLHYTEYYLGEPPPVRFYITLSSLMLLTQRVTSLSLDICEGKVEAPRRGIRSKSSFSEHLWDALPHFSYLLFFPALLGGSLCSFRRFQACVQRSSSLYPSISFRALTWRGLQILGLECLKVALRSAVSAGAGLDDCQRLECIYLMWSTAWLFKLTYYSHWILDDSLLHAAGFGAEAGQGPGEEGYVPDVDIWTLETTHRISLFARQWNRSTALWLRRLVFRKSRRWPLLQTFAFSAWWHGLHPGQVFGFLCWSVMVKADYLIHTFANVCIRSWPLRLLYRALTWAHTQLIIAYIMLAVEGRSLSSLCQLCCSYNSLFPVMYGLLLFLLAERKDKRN
Nature of the assay: Inhibition of His10-tagged mouse GOAT expressed in baculovirus infected Sf9 cells assessed as reduction in specific acyl transfer from tritiated-octanoyl CoA to recombinant His-tagged pro-ghrelin.

Assay [2] addresses T2, Membrane-bound ghrelin O-acyltransferase MBOAT4 (Homo sapiens) (UniProt Q96T53).
T2 sequence (whole entry): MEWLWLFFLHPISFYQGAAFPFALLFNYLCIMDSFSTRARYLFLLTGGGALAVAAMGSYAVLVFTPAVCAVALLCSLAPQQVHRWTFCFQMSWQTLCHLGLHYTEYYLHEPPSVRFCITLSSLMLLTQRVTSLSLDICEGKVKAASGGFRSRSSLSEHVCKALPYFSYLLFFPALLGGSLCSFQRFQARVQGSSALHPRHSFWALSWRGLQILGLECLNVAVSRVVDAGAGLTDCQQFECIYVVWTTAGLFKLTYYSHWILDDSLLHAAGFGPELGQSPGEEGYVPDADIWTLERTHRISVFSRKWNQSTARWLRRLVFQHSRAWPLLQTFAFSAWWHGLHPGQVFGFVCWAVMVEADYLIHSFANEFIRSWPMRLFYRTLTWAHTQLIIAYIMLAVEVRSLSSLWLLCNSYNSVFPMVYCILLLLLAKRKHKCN
Nature of the assay: Inhibition of GOAT (unknown origin) expressed in intact rat INS1 cells co-expressing pre-proghrelin incubated for 24 hrs. It counts as cell-based.

Assay [3] addresses T1, Membrane-bound ghrelin O-acyltransferase MBOAT4 (Mus musculus). Nature of the assay: Inhibition of His10-tagged mouse GOAT expressed in baculovirus infected Sf9 cells assessed as reduction in specific acyl transfer from tritiated-octanoyl CoA to recombinant His-tagged pro-ghrelin at 100 uM.
For assay [4] the target is unchanged. Nature of the assay: Inhibition of His10-tagged mouse GOAT expressed in baculovirus infected Sf9 cells assessed as reduction in specific acyl transfer from tritiated-octanoyl CoA to recombinant His-tagged pro-ghrelin at <500 uM.
Assay [5] has the same target. Nature of the assay: Inhibition of His10-tagged mouse GOAT expressed in baculovirus infected Sf9 cells assessed as reduction in specific acyl transfer from tritiated-octanoyl CoA to recombinant His-tagged pro-ghrelin at 500 uM.

Active and inactive are the calls of the source. No cut-off for these calls is given here. Where a SMILES comes first, the peptide text is derived from it. [ ]: non-standard residue; d: D form. The star is where a group is joined. Octanoyl = CCCCCCCC(=O)*; Dap = NC[C@H](N)C(=O)O

For the molecule `CCCCCCCC(C)(O)/C=C/[C@H](NC(=O)OCc1ccccc1)C(=O)OC` (some centres not stated), the inhibition entry in assay [1] is “Dose-dependent effect”. Besides, the inhibition entry in assay [2] and in assay [3] was “Active” throughout.
With `CCCCCCCC(C)(O)C/C=C(/NC(=O)OCc1ccccc1)C(=O)NC(C)C` (configuration not stated), the inhibition result in assay [1] was “Active”.
The same measure, in the same setting: under `CCCCCCCC(C)(O)/C=C/CNC(=O)OCc1ccccc1` (configuration not stated) stands “Active”.
`CCCCCCCC(O)CC[C@H](NC(=O)OCc1ccccc1)C(=O)N[C@H](COC)Cc1ccccc1` (some centres not stated): in assay [3], the inhibition entry was “Active”.
In the case of `CCCCCCCC(O)/C=C/[C@H](NC(=O)OCc1ccccc1)C(=O)OC` (some centres not stated), the inhibition entry in assay [4], in assay [3] and in assay [5] was “Active” each time.
For `CCCCCCCC(=O)CC[C@H](NC(=O)OCc1ccccc1)C(=O)OC`, the inhibition result in assay [3] was “Active”.
As to `CCCCCCCC(=O)NC[C@H](NC(=O)OCc1ccccc1)C(=O)OC`, in assay [1], the inhibition entry is “inactive”.
Still for that read-out and setting: the value for `CCCCCCCC(C)(O)/C=C/[C@H](NC(=O)OCc1ccccc1)C(=O)NC(C)C` (some centres not stated) was “Active”.
On the same count and under the same terms, the value for `CCCCCCCC(C)(O)/C=C/[C@H](NC(=O)C(C)(C)CO)C(=O)OC` (some centres not stated) was “inactive”; that for `CCCCCCCC(=O)NC[C@H](NC(=O)[C@H](CO)NC(=O)CN)C(=O)N[C@@H](Cc1ccccc1)C(=O)N[C@@H](CC(C)C)C(N)=O` (H-GS[Dap](Octanoyl)FL-NH2) was “Dose-dependent effect”.
Regarding `CCCCCCCC(O)CC[C@H](NC(=O)C(C)(C)CO)C(=O)OC` (some centres not stated), the inhibition result in assay [5] is “Active”.
On to `CCCCCCC[S+]([O-])CC[C@H](NC(=O)OCc1ccccc1)C(=O)OC` (some centres not stated), for which the inhibition entry in assay [1] is “Dose-dependent effect”.
Still for that read-out and setting: the value for `CCC(C)(O)/C=C/[C@H](NC(=O)OCc1ccccc1)C(=O)OC` (some centres not stated) was “inactive”.
Turning to `CCCCCCCC(O)CC[C@H](NC(=O)C(C)(C)CO)C(=O)N[C@H](COC)Cc1ccccc1` (some centres not stated), the inhibition result in assay [4] and in assay [5] was “Active” each time.
With `CCCCCCCC(C)(O)/C=C/[C@@H](NC(=O)OCc1ccccc1)C(=O)OC` (some centres not stated), the inhibition entry in assay [1] and in assay [5] was “Active” each time.
On to `CCCCCCCC(C)(O)/C=C/[C@H](NC(=O)C(C)(C)CO)C(=O)N[C@@H](Cc1ccccc1)C(=O)N[C@@H](CC(C)C)C(N)=O` (some centres not stated), for which the inhibition result in assay [1] was “Active”.

These data come from ChEMBL document CHEMBL4482314, “Small molecule inhibitors of ghrelin O-acyltransferase” (2012).
